Measurements published in US20260125382A1, “COMPOUNDS FOR INHIBITING OR DEGRADING CDK2 AND/OR CDK9 AND MEDICINAL USE THEREOF” (KOREA RESEARCH INSTITUTE OF CHEMICAL TECHNOLOGY, priority 2022, published 2026).

How the values were obtained:
CDK2 = target: T1, CDK2 (Homo sapiens, UniProt P24941); assay: CDK protein degradation activity (Western blotting), CDK2; format: cell-based; details: MDA-MB-231 cells, 16 hours, Western blot
T1 construct: endogenous in cells; host or cells: MDA-MB-231
Method in brief: (§1)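 CDK2 and CDK9 protein levels measured by Western blot with densitometry, using tubulin as loading reference. Cells were MDA-MB-231, exposed for 16 h to 100 nM, 1 μM or 10 μM compound or to DMSO.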

CDK9 = target: T2, CDK9 (Homo sapiens, UniProt P50750); assay: CDK protein degradation activity (Western blotting), CDK9; format: cell-based; details: MDA-MB-231 cells, 16 hours, Western blot
T2 construct: endogenous in cells; host or cells: MDA-MB-231
Method in brief: as §1

T2 sequence (P50750 whole entry): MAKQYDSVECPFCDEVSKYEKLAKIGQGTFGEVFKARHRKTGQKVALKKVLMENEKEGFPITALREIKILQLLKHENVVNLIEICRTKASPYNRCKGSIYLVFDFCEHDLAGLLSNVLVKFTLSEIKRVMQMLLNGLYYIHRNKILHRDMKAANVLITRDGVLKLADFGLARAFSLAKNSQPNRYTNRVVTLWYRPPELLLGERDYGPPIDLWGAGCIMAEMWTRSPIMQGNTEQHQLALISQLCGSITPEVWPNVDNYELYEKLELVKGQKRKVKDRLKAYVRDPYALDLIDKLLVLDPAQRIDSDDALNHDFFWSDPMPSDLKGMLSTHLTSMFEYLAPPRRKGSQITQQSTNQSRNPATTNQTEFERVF

Enzyme degradation CDK2 (% remaining) @ 0.1 μM (CDK2) | Enzyme degradation CDK2 (% remaining) @ 1 μM (CDK2) | Enzyme degradation CDK2 (% remaining) @ 10 μM (CDK2) | Enzyme degradation CDK9 (% remaining) @ 0.1 μM (CDK9) | Enzyme degradation CDK9 (% remaining) @ 1 μM (CDK9) | Enzyme degradation CDK9 (% remaining) @ 10 μM (CDK9) | SMILES
40% | 50% | 60% | 0/0/0% | 0/0/0% | 0/0/0% | O=C1CC[C@@H](c2ccc(OCC(=O)N3CCC4(CC3)CC(N3CCC(c5ccc(Nc6ncnc7c6ncn7C6CC(NC(=O)Cc7ccccc7)C6)cc5)CC3)C4)cc2)C(=O)N1 (stereo partly drawn) [Compound 284, N-((1s,3s)-3-(6-((4-(1-(7-(2-(4-(2,6-dioxopiperidin-3-yl)phenoxy)acetyl)-7-azaspiro[3.5]nonan-2-yl)piperidin-4-yl)phenyl)amino)-9H-purin-9-yl)cyclobutyl)-2-phenylacetamide]
10% | 20% | 20% | 0/0/0% | 0/0/0% | 0/0/0% | O=C1CC[C@@H](c2cccc(OCC(=O)N3CCC4(CC3)CC(N3CCC(c5ccc(Nc6ncnc7c6ncn7C6CC(NC(=O)Cc7ccccc7)C6)cc5)CC3)C4)c2)C(=O)N1 (stereo partly drawn) [Compound 285, N-((1s,3s)-3-(6-((4-(1-(7-(2-(3-(2,6-dioxopiperidin-3-yl)phenoxy)acetyl)-7-azaspiro[3.5]nonan-2-yl)piperidin-4-yl)phenyl)amino)-9H-purin-9-yl)cyclobutyl)-2-phenylacetamide]
40% | 60% | 70% | 40% | 30% | 30% | COc1ccc(C(=O)N2CCC3(CC2)CC(N2CCC(c4ccc(Nc5ncnc6c5ncn6[C@H]5C[C@@H](NC(=O)Cc6ccccc6)C5)cc4)CC2)C3)cc1N1CCC(=O)NC1=O [Compound 286, N-((1s,3s)-3-(6-((4-(1-(7-(3-(2,4-dioxotetrahydropyrimidin-1(2H)-yl)-4-methoxybenzoyl)-7-azaspiro[3.5]nonan-2-yl)piperidin-4-yl)phenyl)amino)-9H-purin-9-yl)cyclobutyl)-2-phenylacetamide]
0/0/0% | 0/0/0% | 0/0/0% | 0/0/0% | 0/0/0% | 0/0/0% | O=C1CC[C@H](N2C(=O)c3cccc(OCC(=O)N4CCC(CN5CCC(c6ccc(Nc7ncnc8c7ncn8[C@H]7C[C@@H](NC(=O)Cc8ccccc8)C7)cc6)CC5)CC4)c3C2=O)C(=O)N1 [Compound 287, N-((1s,3s)-3-(6-((4-(1-((1-(2-((2-(2,6-dioxopiperidin-3-yl)-1,3-dioxoisoindolin-4-yl)oxy)acetyl)piperidin-4-yl)methyl)piperidin-4-yl)phenyl)amino)-9H-purin-9-yl)cyclobutyl)-2-phenylacetamide]
10% | 20% | 20% | 0/0/0% | 0/0/0% | 0/0/0% | O=C1CCC(N2C(=O)c3cccc(NCC(=O)N4CCC(CN5CCC(c6ccc(Nc7ncnc8c7ncn8[C@H]7C[C@@H](NC(=O)Cc8ccccc8)C7)cc6)CC5)CC4)c3C2=O)C(=O)N1 (stereo partly drawn) [Compound 288, N-((1s,3s)-3-(6-((4-(1-((1-((2-(2,6-dioxopiperidin-3-yl)-1,3-dioxoisoindolin-4-yl)glycyl)piperidin-4-yl)methyl)piperidin-4-yl)phenyl)amino)-9H-purin-9-yl)cyclobutyl)-2-phenylacetamide]
40% | 60% | 70% | 30% | 0% | 0% | O=C1CC[C@H](N2C(=O)c3ccc(OCC(=O)N4CCC(CN5CCC(c6ccc(Nc7ncnc8c7ncn8C7CC(NC(=O)Cc8ccccc8)C7)cc6)CC5)CC4)cc3C2=O)C(=O)N1 (stereo partly drawn) [Compound 289, N-((1s,3s)-3-(6-((4-(1-((1-(2-((2-(2,6-dioxopiperidin-3-yl)-1,3-dioxoisoindolin-5-yl)oxy)acetyl)piperidin-4-yl)methyl)piperidin-4-yl)phenyl)amino)-9H-purin-9-yl)cyclobutyl)-2-phenylacetamide]
20% | 20% | 30% | 10% | 0% | 0% | O=C1CC[C@H](N2C(=O)c3ccc(NCC(=O)N4CCC(CN5CCC(c6ccc(Nc7ncnc8c7ncn8C7CC(NC(=O)Cc8ccccc8)C7)cc6)CC5)CC4)cc3C2=O)C(=O)N1 (stereo partly drawn) [Compound 290, N-((1s,3s)-3-(6-((4-(1-((1-((2-(2,6-dioxopiperidin-3-yl)-1,3-dioxoisoindolin-5-yl)glycyl)piperidin-4-yl)methyl)piperidin-4-yl)phenyl)amino)-9H-purin-9-yl)cyclobutyl)-2-phenylacetamide]
20/20/20% | 20/20/20% | 20/20/20% | 20% | 0% | 0% | O=C1CC[C@H](N2C(=O)c3cccc(N4CCC(CN5CCC(c6ccc(Nc7ncnc8c7ncn8C7CC(NC(=O)Cc8ccccc8)C7)cc6)CC5)CC4)c3C2=O)C(=O)N1 (stereo partly drawn) [Compound 291, N-((1s,3s)-3-(6-((4-(1-((1-(2-(2,6-dioxopiperidin-3-yl)-1,3-dioxoisoindolin-4-yl)piperidin-4-yl)methyl)piperidin-4-yl)phenyl)amino)-9H-purin-9-yl)cyclobutyl)-2-phenylacetamide]
10/10/10% | 10/10/10% | 10/10/10% | 10% | 0% | 0% | O=C1CC[C@H](N2C(=O)c3ccc(N4CCC(CN5CCC(c6ccc(Nc7ncnc8c7ncn8[C@H]7C[C@@H](NC(=O)Cc8ccccc8)C7)cc6)CC5)CC4)cc3C2=O)C(=O)N1 [Compound 292, N-((1s,3s)-3-(6-((4-(1-((1-(2-(2,6-dioxopiperidin-3-yl)-1,3-dioxoisoindolin-5-yl)piperidin-4-yl)methyl)piperidin-4-yl)phenyl)amino)-9H-purin-9-yl)cyclobutyl)-2-phenylacetamide]
0/0/0% | 0/0/0% | 0/0/0% | 0/0/0% | 0/0/0% | 0/0/0% | O=C1CCC(N2C(=O)c3cccc(OCC(=O)N4CCC5(CC4)CC(N4CCC(c6ccc(Nc7ncnc8c7ncn8[C@H]7C[C@@H](NC(=O)Cc8ccccc8)C7)cc6)CC4)C5)c3C2=O)C(=O)N1 (stereo partly drawn) [Compound 293, N-((1s,3s)-3-(6-((4-(1-(7-(2-((2-(2,6-dioxopiperidin-3-yl)-1,3-dioxoisoindolin-4-yl)oxy)acetyl)-7-azaspiro[3.5]nonan-2-yl)piperidin-4-yl)phenyl)amino)-9H-purin-9-yl)cyclobutyl)-2-phenylacetamide]
10/10/10% | 10/10/10% | 10/10/10% | 0/0/0% | 0/0/0% | 0/0/0% | O=C1CCC(N2C(=O)c3cccc(NCC(=O)N4CCC5(CC4)CC(N4CCC(c6ccc(Nc7ncnc8c7ncn8[C@H]7C[C@@H](NC(=O)Cc8ccccc8)C7)cc6)CC4)C5)c3C2=O)C(=O)N1 (stereo partly drawn) [Compound 294, N-((1s,3s)-3-(6-((4-(1-(7-((2-(2,6-dioxopiperidin-3-yl)-1,3-dioxoisoindolin-4-yl)glycyl)-7-azaspiro[3.5]nonan-2-yl)piperidin-4-yl)phenyl)amino)-9H-purin-9-yl)cyclobutyl)-2-phenylacetamide]
20/20/20% | 20/20/20% | 20/20/20% | 0/0/0% | 0/0/0% | 0/0/0% | O=C1CC[C@H](N2C(=O)c3ccc(OCC(=O)N4CCC5(CC4)CC(N4CCC(c6ccc(Nc7ncnc8c7ncn8[C@H]7C[C@@H](NC(=O)Cc8ccccc8)C7)cc6)CC4)C5)cc3C2=O)C(=O)N1 [Compound 295, N-((1s,3s)-3-(6-((4-(1-(7-(2-((2-(2,6-dioxopiperidin-3-yl)-1,3-dioxoisoindolin-5-yl)oxy)acetyl)-7-azaspiro[3.5]nonan-2-yl)piperidin-4-yl)phenyl)amino)-9H-purin-9-yl)cyclobutyl)-2-phenylacetamide]
20% | 40% | 40% | 10% | 0% | 0% | O=C1CC[C@H](N2C(=O)c3cccc(N4CCC5(CC4)CC(N4CCC(c6ccc(Nc7ncnc8c7ncn8C7CC(NC(=O)Cc8ccccc8)C7)cc6)CC4)C5)c3C2=O)C(=O)N1 (stereo partly drawn) [Compound 297, N-((1s,3s)-3-(6-((4-(1-(7-(2-(2,6-dioxopiperidin-3-yl)-1,3-dioxoisoindolin-4-yl)-7-azaspiro[3.5]nonan-2-yl)piperidin-4-yl)phenyl)amino)-9H-purin-9-yl)cyclobutyl)-2-phenylacetamide]
